Measured values reported in article PMC5913971, “A Novel Piperazine-Based Drug Lead for Cryptosporidiosis from the Medicines for Malaria Venture Open-Access Malaria Box” (Antimicrobial Agents and Chemotherapy, 2018).
Values after ≈ are worked out from the molar mass of the structure shown.

Assays:
C. hominis TU502 = assay: Cryptosporidium hominis growth inhibition assay (1,536-well); format: cell-based; conditions: HCT-8 cells, read-out: EC50 against C. hominis (isolate TU502)
Protocol: Cryptosporidium hominis growth inhibition assays were performed at the California Institute for Biomedical Research (Calibr), San Diego, CA, using a slightly modified immunofluorescence assay to enable automated compound handling and the use of 1,536-well microtiter plates ([19]). The HCT-8 culture medium was replaced with RPMI 1640 medium supplemented with 2% heat-inactivated horse serum, 100 U/ml penicillin, and […] streptomycin 24 h prior to infection with either C. hominis or the C. parvum Iowa isolate, used as a reference. […] Imaging was performed using a CellInsight CX5 High Content screening platform (Thermo Scientific) with a 10× objective and acquisition of one microscopic field per well. Images were processed using HCS Studio Scan software, and the selected-object count (HCT-8 cells) and spot count (C. hominis) were analyzed in Genedata Screener (version 13.0; Standard). Dose-response curves and EC values were calculated using the Smart Fit function of Genedata Analyzer.

HCT-8 cells = assay: Host cell toxicity assay (CellTiter AQueous); format: cell-based, Human
Protocol: Host cell toxicity was measured as described previously ([20]). HCT-8 cells were grown to >95% confluence in 384-well plates. Increasing concentrations of compounds were added, and assay plates were incubated at 37°C under 5% CO2 for 48 h. The corner wells of each plate were trypsinized to remove cells and were used as blanks for measuring absorbance at 490 nm. Cell proliferation was measured using the CellTiter AQueous assay kit (Promega, USA) according to the manufacturer's instructions and was expressed as the percentage of proliferation with the vehicle control (DMSO). GraphPad Prism software, version 6.01, was used to plot graphs and calculate the concentration that inhibits 50% of host cell proliferation relative to that with the DMSO control (50% toxic concentration [TC50]). A selectivity index (SI) was calculated as the ratio of the […].

C. parvum Iowa isolate [1] = assay: NOD SCID gamma (NSG) mouse model of chronic cryptosporidiosis, fecal qPCR; format: in vivo, NOD SCID gamma mice
Protocol: All NOD SCID gamma mouse studies were performed in compliance with animal care guidelines and were approved by the University of Vermont Institutional Animal Care and Use Committee. NOD SCID gamma mice with normal flora (NOD.Cg-Prkdc^scid Il2rg^tm1Wjl/SzJ) ([38]) were purchased from The Jackson Laboratory (Bar Harbor, ME, USA) and were housed for at least a week for acclimatization. At the age of 4 to 5 weeks, mice were infected with 10^5 C. parvum Iowa isolate oocysts. Fecal oocyst shedding is detected 6 days after infection using a quantitative PCR (qPCR assay), so treatment was started on day 7 after infection. Mice (4 per experimental group) were treated either orally (p.o.) with MMV665917 at 30 or 60 mg/kg BID, intraperitoneally (i.p.) with MMV665917 at 60 mg/kg BID, or p.o. with 1,000 mg/kg paromomycin BID. MMV665917 was suspended in DMSO, sonicated three times, for 30 s each time, to obtain a fine suspension, aliquoted, and stored at −80°C for <10 days. On the day of treatment, aliquots of MMV665917 diluted in DMSO were thawed, mixed well using a vortexer, diluted with 1% HPMC, sonicated as before (three times for 30 s each time), mixed well, and given to mice either p.o. or by i.p. injection. A final concentration of 5% DMSO was used in 100 μl of 1% HPMC per dose. For the additional Malaria Box compounds and compound variants tested, the doses were prepared in the same way, and the specific dosages tested are given in Table S3 in the supplemental material. Mice were treated for either 4 or 7 days, allowed to recover for a week, and then sacrificed. Oocyst shedding in feces was monitored throughout by qPCR, including time points while on treatment and while monitoring for relapsed infection following completion of treatment in Fig. 2A.

C. parvum Iowa isolate [2] = assay: IFN-γ knockout mouse model of acute cryptosporidiosis; format: in vivo, C57BL/6 IFN-γ−/− mice; conditions: 30 mg/kg twice daily on days 4, 5, 6 postinfection
Protocol: All interferon gamma (IFN-γ) knockout mouse studies were performed in compliance with animal care guidelines and were approved by the Explora BioLabs (San Diego, CA) Institutional Animal Care and Use Committee. Four-week-old female C57BL/6 IFN-γ^−/− mice with normal flora were purchased from The Jackson Laboratory and were acclimated for 3 days prior to infection by oral gavage with 10^6 C. parvum Iowa isolate oocysts (Sterling Parasitology Laboratory, University of Arizona) suspended in sterile distilled water. At various times postinfection, mice were treated with the compound vehicle alone, clofazimine (used as a positive control), or MMV665917. As described previously, fecal parasite shedding was quantified at various times postinfection by isolating oocysts using a sucrose gradient centrifugation method ([39]), followed by staining for immunofluorescence microscopy using a fluorescein isothiocyanate-conjugated mouse anti-Cryptosporidium antibody (0.25 μg per sample) and analysis with a Guava easyCyte flow cytometer and CytoSoft data acquisition and analysis software (version 5.3; Guava Technologies, Inc.). Oocyst counts per milliliter of sample were exported to Excel (Microsoft Corp.) and were normalized to counts per milligram of feces. Final data analysis and graphing were carried out using GraphPad Prism software (version 6.01).

[3] = design: method as in PMID 27467575; conditions: pH 7.4; cited from earlier work
hERG = test system: hERG; design: method as in PMID 27467575; conditions: at 11 μM; cited from earlier work

## O=C(Nc1ccc(Cl)cc1)N1CCN(c2ccc3nncn3n2)CC1 [MMV665917, Clc1ccc(NC(=O)N2CCN(CC2)c3ccc4nncn4n3)cc1]
C. hominis TU502
  EC50: 4.05 µM
HCT-8 cells; 48 h, CellTiter AQueous
  TC50, host HCT-8 cell toxicity: > 100 µM
HCT-8 cells; HCT-8 TC50 versus C. parvum EC50
  selectivity index (SI): > 47
HCT-8 cells; concentrations as high as 100 μM
  toxic effect on host HCT-8 cell proliferation: no toxic effect
C. parvum Iowa isolate [1]; 30 mg/kg orally twice daily, 7 days, from day 7 after infection
  reduction of oocyst shedding: > 90%
C. parvum Iowa isolate [1]; 60 mg/kg BID p.o. or i.p., Fig. 4A
  efficacy, oral versus intraperitoneal dosing: equally efficacious regardless of the route of administration
C. parvum Iowa isolate [1]; MMV665917 30 mg/kg orally twice daily, 7 days
  relapse after cessation of treatment: relapsed
C. parvum Iowa isolate [1]; MMV665917 60 mg/kg orally twice daily, 7 days
  outcome after cessation of treatment: apparently cured
C. parvum Iowa isolate [1]; dose 30 mg/kg, interval 12 h, duration 4 days
  NSG efficacy: efficacious
C. parvum Iowa isolate [2]
  efficacy in IFN-γ KO mouse model of acute infection: highly efficacious
[3]
  kinetic solubility: 18 µM (≈ 6.44 µg/mL)
hERG
  hERG inhibition: 58%
